The values below come from ChEMBL document CHEMBL1201862, “PubChem BioAssay data set” (2004).

Holding throughout (format): functional
Test [1] can be described thus: SAR analysis of small molecule activators of Apaf-1 using a LZ-Caspase-9/Caspase-3 Fluorescent Selectivity assay - Set 2. The following applies: read-out: EC50_Mean.
For test [2], the target named is T1, Apoptotic protease-activating factor 1 (Homo sapiens, UniProt O14727).
T1 sequence (O14727 whole entry): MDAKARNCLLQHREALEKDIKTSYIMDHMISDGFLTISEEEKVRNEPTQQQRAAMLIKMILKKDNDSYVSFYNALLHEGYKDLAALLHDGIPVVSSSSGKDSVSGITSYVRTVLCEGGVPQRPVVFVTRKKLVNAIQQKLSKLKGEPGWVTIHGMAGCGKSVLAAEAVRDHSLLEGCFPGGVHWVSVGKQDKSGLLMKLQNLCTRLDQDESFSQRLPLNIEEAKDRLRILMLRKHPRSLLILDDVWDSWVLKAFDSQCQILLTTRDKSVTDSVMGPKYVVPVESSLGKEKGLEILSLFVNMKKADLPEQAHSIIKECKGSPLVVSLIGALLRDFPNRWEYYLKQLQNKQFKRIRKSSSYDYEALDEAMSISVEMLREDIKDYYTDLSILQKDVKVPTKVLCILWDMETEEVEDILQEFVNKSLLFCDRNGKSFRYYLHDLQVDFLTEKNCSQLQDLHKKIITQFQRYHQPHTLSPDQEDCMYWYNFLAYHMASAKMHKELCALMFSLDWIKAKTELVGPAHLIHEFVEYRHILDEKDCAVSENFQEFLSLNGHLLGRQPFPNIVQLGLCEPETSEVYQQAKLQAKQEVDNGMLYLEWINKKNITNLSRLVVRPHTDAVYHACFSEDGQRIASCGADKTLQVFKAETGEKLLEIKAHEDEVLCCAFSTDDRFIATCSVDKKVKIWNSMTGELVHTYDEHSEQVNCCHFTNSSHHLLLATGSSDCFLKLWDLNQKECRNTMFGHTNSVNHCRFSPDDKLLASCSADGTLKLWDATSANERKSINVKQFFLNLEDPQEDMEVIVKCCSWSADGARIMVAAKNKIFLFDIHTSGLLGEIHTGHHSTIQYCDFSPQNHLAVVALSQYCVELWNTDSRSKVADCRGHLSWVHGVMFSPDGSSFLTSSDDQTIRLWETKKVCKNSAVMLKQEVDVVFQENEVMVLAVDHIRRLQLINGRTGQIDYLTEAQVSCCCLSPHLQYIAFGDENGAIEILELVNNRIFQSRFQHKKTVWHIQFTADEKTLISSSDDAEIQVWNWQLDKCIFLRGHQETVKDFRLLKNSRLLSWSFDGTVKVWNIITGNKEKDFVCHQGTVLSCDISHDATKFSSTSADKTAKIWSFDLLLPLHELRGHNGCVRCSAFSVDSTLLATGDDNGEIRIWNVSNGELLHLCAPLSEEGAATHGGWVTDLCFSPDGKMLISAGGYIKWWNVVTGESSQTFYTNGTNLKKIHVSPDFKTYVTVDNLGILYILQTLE
The experiment in a line: SAR analysis of small molecule Activators of Apaf-1 in a Fluorescent assay - set 2. The following applies: read-out: EC50_Mean.

Test [3] deals with Melanin-concentrating hormone receptor 1 (Homo sapiens, UniProt Q99705). The experiment in a line: Late-stage fluorescence-based counterscreen for antagonists of the G-protein coupled receptor 7 (GPR7): cell-based dose response assay to identify antagonists of the melanin-concentrating hormone receptor 1 (MCHR1) Set 5. (A counterscreen serves to expose hits that act by an unwanted route or on another target.)

In test [4] the target is T2, Neuropeptides B/W receptor type 1 (Homo sapiens, UniProt P48145).
T2 sequence (P48145 whole entry): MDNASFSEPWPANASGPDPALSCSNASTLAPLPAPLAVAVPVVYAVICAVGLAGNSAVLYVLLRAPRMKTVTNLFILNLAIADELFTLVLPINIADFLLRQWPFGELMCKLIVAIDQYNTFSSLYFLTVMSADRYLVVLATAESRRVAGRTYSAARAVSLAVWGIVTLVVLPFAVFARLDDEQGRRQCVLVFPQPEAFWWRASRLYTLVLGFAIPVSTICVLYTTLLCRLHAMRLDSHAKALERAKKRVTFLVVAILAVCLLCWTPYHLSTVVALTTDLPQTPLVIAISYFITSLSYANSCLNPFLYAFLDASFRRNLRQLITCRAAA
The experiment in a line: GPR7 antagonist potency, late-stage follow-up, cell-based, fluorescence, dose response, set 5 (AID 588566).

The source made the active and inactive calls.

Chain of Melanin-concentrating hormone receptor 1 (Q99705 whole entry): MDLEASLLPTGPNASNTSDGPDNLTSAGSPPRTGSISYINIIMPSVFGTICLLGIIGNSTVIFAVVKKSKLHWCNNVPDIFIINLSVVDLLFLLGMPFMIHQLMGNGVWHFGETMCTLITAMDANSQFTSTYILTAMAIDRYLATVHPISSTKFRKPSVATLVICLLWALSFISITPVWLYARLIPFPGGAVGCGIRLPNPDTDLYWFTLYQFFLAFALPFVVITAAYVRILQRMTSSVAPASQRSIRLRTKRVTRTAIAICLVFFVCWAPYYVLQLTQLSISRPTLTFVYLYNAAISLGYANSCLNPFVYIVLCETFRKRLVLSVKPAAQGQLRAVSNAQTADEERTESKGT

Regarding `COc1cc(OC)c(C2=NOC(C(=O)O)C2)cc1Cl` (centres undefined), the EC50 in test [1] and in test [2] was > 100 µM (inactive) in each case.

Turning to `COc1ccc(Oc2c(C(=O)O)cnn(Cc3cccc4ccccc34)c2=O)cc1`, the IC50 in test [3] and in test [4] was > 20 µM (inactive) throughout.

A word on the IC50: it is the point on the concentration scale where inhibition reaches its midpoint.
